What was measured:
Agelastica alni = system: Agelastica alni; parameters: method as in Ikonen et al. (2002); settings: 2.48% by weight, dual choice bioassay; ref Ikonen et al. (2002); cited from earlier work
Lymantria dispar [1] = system: Lymantria dispar; parameters: method as in Beninger et al. (2004); settings: 100 ppm (2.8 mM) and 1000 ppm (28 mM); ref Beninger et al. (2004); cited from earlier work
[2] = system: Frankliniella occidentalis; parameters: method as in Leiss et al. (2009a); settings: 5% (5 mg/ml); ref Leiss et al. (2009a); cited from earlier work
Trichoplusia ni = system: Trichoplusia ni; parameters: method as in Beninger et al. (2004); settings: 100 ppm (2.8 mM) and 1000 ppm (28 mM); ref Beninger et al. (2004); cited from earlier work
Helicoverpa zea = system: Helicoverpa zea; parameters: method as in Summers and Felton (1994); settings: 4 mM, ref Summers and Felton (1994), cited from earlier work
Plagiodera versicolora = system: Plagiodera versicolora; parameters: method as in Jassbi (2003); settings: ref Jassbi (2003); cited from earlier work
Spodoptera litura = settings: 0.7–0.8 µg/ml; ref Mallikarjuna et al. (2004); cited from earlier work
Dalbulus maidis = system: Dalbulus maidis; parameters: method as in Dowd and Vega (1996); settings: adults, 400 ppm, in vitro bioassay; ref Dowd and Vega (1996); cited from earlier work
Spodoptera frugiperda [3] = system: Spodoptera frugiperda; parameters: method as in Diaz Napal and Palacios (2015); settings: 100 µg/cm^2; ref Diaz Napal and Palacios (2015); cited from earlier work
Spodoptera frugiperda [4] = system: Spodoptera frugiperda; parameters: method as in Gallo et al. (2006); settings: 0.1 mg/g; ref Gallo et al. (2006); cited from earlier work
[5] = ref Dai et al. (2013, 2015); cited from earlier work
Lymantria dispar [6] = system: Lymantria dispar; parameters: method as in Beninger and Abou-Zaid (1997); settings: 0.05%, day 15; ref Beninger and Abou-Zaid (1997); cited from earlier work
Bactrocera Cucurbitae = system: Bactrocera Cucurbitae; parameters: method as in Sharma and Sohal (2013); settings: 125 ppm; ref Sharma and Sohal (2013); cited from earlier work
Helicoverpa armigera [7] = system: Helicoverpa armigera; parameters: method as in Liu et al. (2015); settings: 3 and 10 mg/g; ref Liu et al. (2015); cited from earlier work
Acyrthosiphon pisum = system: Acyrthosiphon pisum; parameters: method as in Goławska et al. (2014); settings: ref Goławska et al. (2014), cited from earlier work
Helicoverpa armigera [8] = system: Helicoverpa armigera; parameters: method as in Li et al. (2016); settings: ref Li et al. (2016), cited from earlier work
Aphis fabae = system: Aphis fabae; parameters: method as in Lattanzio et al. (2000); settings: 0.1 M; ref Lattanzio et al. (2000); cited from earlier work
[9] = Solubility in natural deep eutectic solvents (saturated solutions, UV-VIS); format: physicochemical; settings: 1,2-propanediol: choline chloride: water (1:1:1), water 7.71%; 24 h at 50 °C; mean ± SD, n = 3
Method: As an extension of these studies, we have investigated the solubility of six insecticidal metabolites in a variety of NADES. The solvent selection framework consisted of the following steps: • Preliminary solvent screening: a pre-selected set of 20 NADES was used as a starting point to identify and rank potential NADES candidates (Table 3). Selection constraints were imposed on important properties such as viscosity and stability.
• Secondary screening: solubility tests were performed to determine the best solvent for each of the metabolites. Saturated solutions, generated by adding an excess amount of each compound to different NADES, were kept under constant stirring (1100 rpm) for 24 h at 50 °C. The 20 candidates were ranked in decreasing order of solvent power. • Solubility verification: For the verification of solubilities, samples were centrifuged for 5 min at 2000 rpm and subsequently diluted suitably with methanol for spectrophotometric analysis (UV-1800 UV–VIS spectrophotometer, Shimadzu Europe GmbH, Duisburg, Germany).

Pieris rassicae = system: Pieris rassicae; parameters: method as in Onkokesung et al. (2014); settings: applied exogenously at 100 µM; ref Onkokesung et al. (2014); cited from earlier work

O=C(/C=C/c1ccc(O)c(O)c1)O[C@@H]1C[C@](O)(C(=O)O)C[C@@H](O)[C@H]1O [Chlorogenic acid]
Feeding deterrence (Agelastica alni): Feeding deterrent at concentration of 2.48% by weight (dual choice bioassay) | Larval growth and development (Lymantria dispar [1]): Reduced larval growth and development at 100 ppm (2.8 mM) and 1000 ppm (28 mM) | Relative growth rate and survival of first instar larva [2]: Reduced relative growth rate and survival of first instar larva at 5% (5 mg/ml) | Larval growth and development (Trichoplusia ni): Reduced larval growth and development at 100 ppm (2.8 mM) and 1000 ppm (28 mM) | Prooxidant effect on midgut proteins (Helicoverpa zea; chronic exposure): oxidative stress in midgut proteins | Development rate, survivorship and pupal weight (Helicoverpa zea): Development rate and pupal weight are negatively influenced | Amount with antifeedant activity (Plagiodera versicolora): Antifeedant activity above 50 µg/disk | Development (Spodoptera litura): Developmental retardation | Larval mortality (Spodoptera litura): > 60% | Antifeedant activity (Dalbulus maidis): Antifeedant activity in adults at 400 ppm (in vitro bioassay)

O=c1c(O)c(-c2ccc(O)c(O)c2)oc2cc(O)cc(O)c12 [Quercetin]
Feeding deterrence (Spodoptera frugiperda [3]): Feeding deterrent (57%) at 100 µg/cm^2 | Larval mortality (Spodoptera frugiperda [4]): 78% Larval mortality at 0.1 mg/g | Solubility in NADES compared to aqueous solubility [5]: significantly increased | Larval weight reduction (Lymantria dispar [6]): Larval growth inhibitor. Larval weight reduced by 33% at 0.05% at day 15 | Food assimilation, larval and pupal weight (Bactrocera Cucurbitae): Growth regulator and or deterrent: reduction in food assimilation as well as larval and pupal weight at 125 ppm | Growth, pupation, adult emergence, survival (Helicoverpa armigera [7]): Deleterious effects growth, pupation and adult emergence, and survivalat 3 and 10 mg/g | Probing and feeding deterrence (Acyrthosiphon pisum; 100 µg cm^−3): Probing and feeding deterrent | Mortality, development time, fecundity (Acyrthosiphon pisum; higher concentration than 100 µg cm^−3): mortality and development time are increased whereas fecundity is decreased | Development (Spodoptera litura): Developmental retardation | Larval mortality (Spodoptera litura): > 60% | Reduction of pupation (Helicoverpa armigera [8]; 8 mg/g): 50% | Reduction of larval weight (Helicoverpa armigera [8]; 16 mg/g): ~50% | Mortality (Helicoverpa armigera [8]; 32 mg/g): > 80% | Progeny deposition (Aphis fabae): Inhibitory activity on progeny deposition 0.1 M | Solubility [9]: 44.34 ± 0.76 mg/g

C[C@@H]1O[C@@H](Oc2cc(O)c3c(=O)c(O[C@@H]4O[C@@H](C)[C@H](O)[C@@H](O)[C@H]4O)c(-c4ccc(O)cc4)oc3c2)[C@H](O)[C@H](O)[C@H]1O [kaempferol 3-O-rhamnoside 7-O-rhamnoside]
Growth (Pieris rassicae): Growth negatively affected

— PMC5674125, “Towards eco-friendly crop protection: natural deep eutectic solvents and defensive secondary metabolites” (Phytochemistry Reviews, 2017)
